pKd: −log10 of the molar value. Values joined by “and” are separate entries in the source; they are usually repeats but may differ in a detail not shown here. Equal values may be shown once.
What was measured:
MCF-7 cells [1] = assay: Saturation binding assay with [^18F]1 on MCF-7 cells; parameters: species or system human; conditions: 30 min incubation, nonspecific binding from cells pretreated with 1 µM SP-141 for 25 h, read-out: Kd (equilibrium dissociation constant)
Method: Next, saturation binding assays were conducted to evaluate the binding affinity of [^18F]1 on MCF-7 cells. In these experiments, MCF-7 cells seeded in 24-well plates were incubated for 30 min with eight increasing concentrations of [^18F]1 in serial two-fold dilutions (185.5–1.4 nM). Nonspecific binding was assessed in parallel using cells that were pretreated with 1 µM SP-141 for about 25 h to induce MDM2 degradation, thereby depleting MDM2 from the cells. Uptake of [^18F]1 in SP-141-pretreated cells was considered nonspecific and was subtracted from the total binding data for untreated cells at each radiotracer concentration to calculate the equilibrium dissociation constant (Kd) by nonlinear regression analysis in Graphpad Prism®.
For the saturation binding assay with [^18F]1, MCF-7 cells plated in 24-well plates (200,000 cells/well) were treated for 25 h with vehicle (DMSO, <5%; plate #1, for total binding) or SP-141 (1 µM; plate #2, to determine nonspecific binding). […] At each concentration of [^18F]1, nonspecific binding was determined in parallel (plate #2) in cells treated with 1 µM SP-141 to induce MDM2 degradation. Specific binding data were calculated by subtracting nonspecific binding from total binding and fit using the equation “Specific binding with Hill slope” in GraphPad Prism® (GraphPad, v5.01). […]

[2] = In vitro stability in human serum (HPLC); type: in vitro ADME; conditions: 37 °C, 1, 2 and 3 h
Method: Next, the in vitro stability of [^18F]1 was examined by incubating the labeled compound with human serum for up to 3 h at 37 °C, followed by HPLC analysis of the samples using gradient elution conditions.
The stability of [^18F]1 in human serum (Innovative Research Inc., Novi, MI, USA) was analyzed by HPLC using a Chromolith® Performance RP-18e column (4.6 × 100 mm, Millipore Sigma, Burlington, MA, USA), eluted with gradient mixtures of sodium acetate buffer (0.05 M, pH 5.5) and ethanol. The percentage of ethanol was kept at 5% for the first 5 min at a flow rate of 0.5 mL and then increased to 90% over 15 min at a flow rate of 1 mL/min. The stability studies were initiated by incubating human serum (0.5 mL) with [^18F]1 (6.66 MBq in 20 µL ethanol) at 37 °C. Samples (100 µL) were analyzed by HPLC after 0, 1, 2, and 3 h incubation. At each time point, the serum sample was spiked with the nonradioactive 1 (10 µg) before HPLC analysis for identity confirmation of the parent peak ([^18F]1).

MCF-7 cells [3] = assay: Cell uptake of [^18F]1 in MCF-7 cells after 21 h pretreatment; type: cell-based, human; conditions: 1 h uptake
Method: The ability of [^18F]1 to bind to MDM2 expressing human tumor cells was assessed using two wild-type p53 cell lines, MCF-7 breast adenocarcinoma, and HepG2 hepatocellular carcinoma. These cell lines have significant MDM2 expression levels and have been utilized previously for assessing potential MDM2 inhibitors, including SP-141 [12, 24, 25]. […] Thus, to examine the uptake and specificity of [^18F]1 by MDM2 expressing tumor cell lines, MCF-7 and HepG2 cells were treated with 0, 1, 5, or 10 µM SP-141 for 21 h, and then assessed for [^18F]1 uptake for 1 h.
Cell uptake studies of [^18F]1 were conducted using MCF-7 and HepG2 cell lines. Briefly, cells plated in 24-well plates (200,000/well) were treated with varying concentrations of SP-141 (1, 5, or 10 µM) or vehicle for 21 h and incubated with a fresh medium containing [^18F]1 (~18.5 kBq in 0.5 mL medium) for 1 h. Next, the incubation medium was removed, cells were rinsed with cold PBS (3 × 0.5 mL) and lysed using Cell Culture Lysis Reagent (0.25 mL, Promega Corporation, Madison, WI, USA) followed by a rinse with PBS (0.125 mL/well). For each well, the supernatant, PBS washes, and the cell lysate were measured for radioactivity in an automated gamma counter (Wallac Wizard™, Perkin Elmer, Waltham, MA, USA). Subsequently, cell lysates were analyzed for protein concentration using the Bradford assay (Bio-Rad, Hercules, CA, USA). Cell uptake for each well was normalized to its protein content and expressed as % uptake/mg protein. Results are presented as mean ± SD for three wells.

## [18F]CCOc1ccc2[nH]c3c(-c4cccc5ccccc45)nccc3c2c1 [[^18F]1]
MCF-7 cells [1]
  pKd: 7.11
[2]
  Percentage of intact [^18F]1: ~ 100%
MCF-7 cells [3]; MCF-7 cells treated with SP-141 (1, 5 or 10 µM) for 21 h
  [^18F]1 uptake: ≤ 18.5 ± 0.0 %/mg protein
MCF-7 cells [3]; vehicle-treated control MCF-7 cells
  [^18F]1 uptake: 71.4 %/mg protein and 71.4 ± 0.0 %/mg protein

Reference: paper PMC8070256, “Feasibility of Developing Radiotracers for MDM2: Synthesis and Preliminary Evaluation of an ^18F-Labeled Analogue of the MDM2 Inhibitor SP-141” (Pharmaceuticals, 2021)
